Measured values reported in PMC12203613 (Journal of Agricultural and Food Chemistry, 2025).

Key:
Assay type in all cases: biochemical
[1] = molecular target: T1, AtHPPD (4-hydroxyphenylpyruvate dioxygenase) (Arabidopsis thaliana, UniProt P93836); experiment: coupled enzyme assay
T1 sequence (P93836 1-445): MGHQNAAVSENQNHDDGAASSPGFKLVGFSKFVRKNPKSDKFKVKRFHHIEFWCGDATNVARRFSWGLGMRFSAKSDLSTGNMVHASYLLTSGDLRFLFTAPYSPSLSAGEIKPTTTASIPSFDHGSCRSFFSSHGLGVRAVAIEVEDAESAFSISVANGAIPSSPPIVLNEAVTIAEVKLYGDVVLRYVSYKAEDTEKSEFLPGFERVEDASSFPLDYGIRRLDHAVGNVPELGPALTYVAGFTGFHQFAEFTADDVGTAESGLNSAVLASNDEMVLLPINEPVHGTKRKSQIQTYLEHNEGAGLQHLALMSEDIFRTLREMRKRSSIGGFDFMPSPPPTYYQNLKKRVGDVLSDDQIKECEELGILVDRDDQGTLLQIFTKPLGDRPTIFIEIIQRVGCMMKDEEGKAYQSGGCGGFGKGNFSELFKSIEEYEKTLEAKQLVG

[2] = molecular target: T2, OsHPPD (4-hydroxyphenylpyruvate dioxygenase) (Oryza sativa, UniProt Q6H4V1); experiment: coupled enzyme assay
T2 sequence (Q6H4V1 2-446): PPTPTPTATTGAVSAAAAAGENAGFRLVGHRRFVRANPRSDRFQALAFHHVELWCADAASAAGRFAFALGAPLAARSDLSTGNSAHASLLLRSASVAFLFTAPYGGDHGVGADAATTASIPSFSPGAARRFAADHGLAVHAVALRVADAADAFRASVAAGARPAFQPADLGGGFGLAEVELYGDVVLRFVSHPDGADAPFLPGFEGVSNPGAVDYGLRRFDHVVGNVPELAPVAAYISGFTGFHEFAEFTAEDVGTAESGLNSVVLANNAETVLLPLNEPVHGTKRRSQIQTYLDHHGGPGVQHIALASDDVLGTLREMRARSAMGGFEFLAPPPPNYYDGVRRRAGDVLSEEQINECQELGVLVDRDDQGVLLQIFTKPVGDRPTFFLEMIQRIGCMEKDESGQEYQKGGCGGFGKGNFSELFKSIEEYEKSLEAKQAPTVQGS

[3] = molecular target: T2, OsHPPD (4-hydroxyphenylpyruvate dioxygenase); experiment: X-ray co-crystal structure at […] Å
[4] = molecular target: T1, AtHPPD (4-hydroxyphenylpyruvate dioxygenase); experiment: X-ray co-crystal structure at […] Å

| SMILES | Ki [1] [nM] | Ki [2] [nM] | Ki [3] [nM] | Ki [4] [nM] |
| --- | --- | --- | --- | --- |
| CS(=O)(=O)c1ccc(C(=O)C2C(=O)CCCC2=O)c([N+](=O)[O-])c1 [mesotrione] | 22.1 ± 4.5 | 26.5 ± 10.8 |  |  |
| Cc1nnc(NC(=O)c2ccc(C(F)(F)F)n3c(CS(=O)(=O)C(C)C)nnc23)o1 [iptriazopyrid, 3-[(isopropylsulfonyl)-methyl]-N-(5-methyl-1,3,4-oxadiazol-2-yl)-5-(trifluoromethyl)-[1,2,4]-triazolo[4,3-a]-pyridine-8-carboxamide] |  |  | 33.3 ± 3.3 | 24.3 ± 0.3 |
